Data as given in ChEMBL document CHEMBL1201862, “PubChem BioAssay data set” (2004).
The source made the active and inactive calls.

What was measured:
[1] = T. cruzi growth inhibition in host cells, dose response, cell-based, plate reader, dry powder, set 2 (AID 652275); assay type: functional
[2] = HIV-1 AD8 envelope cell-cell fusion blockers – cherry-pick, dose response (AID 652062); assay type: functional, cell-based;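 further: luciferase signal from cell-cell fusion driven by HIV-1 clade B AD8 Env; potency is for inhibitors of fusion seen as a drop in luminescence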
INS1 = experiment: INS-1E survival protection against cytokine death – cell-based, luminescence, retest, dose response (AID 449756); assay type: functional; conditions: Rattus norvegicus;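 further: cell death triggered by IL-1 beta plus TNF-alpha plus IFN-gamma mixture; protective hits raise ATP signal compared with cytokine alone wells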
[3] = blockers of HIV-1 envelope-mediated cell-cell fusion – cherry-pick, dose response (AID 652057); assay type: functional, cell-based
[4] = viability loss in CEM21 cells – cell-based, CellTiter-Glo luminescence, cherry-picked, cytotoxicity control for viral fusion inhibitor project, dose response (AID 652042); assay type: functional;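 further: potency for signal decrease meaning cytotoxicity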
[5] = off-target signal loss in HeLa-CEM21 co-culture – HeLa F-luc CTL cells, cherry-picked, counter-screen for HIV-1 Env fusion inhibitor project, dose response (AID 652040); assay type: functional, cell-based;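 further: potency for signal decrease marking cytotoxic or nonspecific inhibition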
[6] = blockers of HIV-1 ZM109 envelope-driven cell-cell fusion – HeLa effector, CEM target cells, luciferase, cherry-pick, dose response (AID 652058); assay type: functional, cell-based;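 further: luciferase signal from HIV-1 Env mediated cell-cell fusion of effector and target cells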
[7] = biological target: Disintegrin and metalloproteinase domain-containing protein 17 (Homo sapiens, UniProt P78536); experiment: exosite inhibitors of ADAM17, dose response, biochemical (AID 743260)
Albumin = Albumin (Bos taurus, UniProt P02769); experiment: Counterscreen for inhibitors of T-cell receptor (TCR)-CD3 interaction: Fluorescence-based biochemical high throughput dose response assay to identify inhibitors of T-cell receptor (TCR)-CD3 interaction using a TAMRA-labeled BSA probe.; assay type: functional
[8] = inhibition of ADAM10 peptide cleavage – biochemical, FRET peptide substrate, recombinant human ADAM10, selectivity assay for ADAM17 exosite inhibitor project, dose response (AID 743259);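 further: ADAM10 enzyme cleaving a FRET peptide substrate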
Vero = experiment: cells; assay type: functional; conditions: Chlorocebus sabaeus
[9] = Counterscreen for activators of the function of SWI/SNF related, matrix associated, actin dependent regulator of chromatin, subfamily a, member 2 (SMARCA2, BRM): Luminescence-based cell-based high throughput dose response assay to identify non-selective compounds using the VP16 reporter assay.; assay type: functional
[10] = biological target: SWI/SNF-related matrix-associated actin-dependent regulator of chromatin subfamily A member 2 (Homo sapiens, UniProt P51531); experiment: Luminescence-based cell-based high throughput dose response assay to identify activators of the function of SWI/SNF related, matrix associated, actin dependent regulator of chromatin, subfamily a, member 2 (SMARCA2, BRM).; assay type: functional
cells [11] = assay type: functional, cell-based
[12] = biological target: T1, Trace amine-associated receptor 1 (Homo sapiens, UniProt Q96RJ0); experiment: Fluorescence-based cell-based high throughput dose response assay to identify agonists of the human trace amine associated receptor 1 (TAAR1).; assay type: functional
T1 sequence (Q96RJ0 whole entry): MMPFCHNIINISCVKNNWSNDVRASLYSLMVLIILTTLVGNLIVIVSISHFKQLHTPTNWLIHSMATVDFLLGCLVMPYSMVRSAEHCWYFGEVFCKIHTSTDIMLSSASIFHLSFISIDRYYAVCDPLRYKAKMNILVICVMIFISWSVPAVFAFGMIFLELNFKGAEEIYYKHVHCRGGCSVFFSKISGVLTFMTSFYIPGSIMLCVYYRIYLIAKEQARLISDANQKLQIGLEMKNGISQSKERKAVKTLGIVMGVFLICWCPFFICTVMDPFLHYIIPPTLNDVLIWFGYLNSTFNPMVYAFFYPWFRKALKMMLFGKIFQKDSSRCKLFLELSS

[13] = biological target: T1, Trace amine-associated receptor 1; experiment: Counterscreen for agonists of the human trace amine associated receptor 1 (hTAAR1): Fluorescence-based cell-based high throughput dose response assay to identify hTAAR1 agonist that also desensitize TAAR1 receptor response.; assay type: functional
cells [14] = assay type: functional, cell-based; remark: listed apart in the source

Albumin, sequence (P02769 whole entry): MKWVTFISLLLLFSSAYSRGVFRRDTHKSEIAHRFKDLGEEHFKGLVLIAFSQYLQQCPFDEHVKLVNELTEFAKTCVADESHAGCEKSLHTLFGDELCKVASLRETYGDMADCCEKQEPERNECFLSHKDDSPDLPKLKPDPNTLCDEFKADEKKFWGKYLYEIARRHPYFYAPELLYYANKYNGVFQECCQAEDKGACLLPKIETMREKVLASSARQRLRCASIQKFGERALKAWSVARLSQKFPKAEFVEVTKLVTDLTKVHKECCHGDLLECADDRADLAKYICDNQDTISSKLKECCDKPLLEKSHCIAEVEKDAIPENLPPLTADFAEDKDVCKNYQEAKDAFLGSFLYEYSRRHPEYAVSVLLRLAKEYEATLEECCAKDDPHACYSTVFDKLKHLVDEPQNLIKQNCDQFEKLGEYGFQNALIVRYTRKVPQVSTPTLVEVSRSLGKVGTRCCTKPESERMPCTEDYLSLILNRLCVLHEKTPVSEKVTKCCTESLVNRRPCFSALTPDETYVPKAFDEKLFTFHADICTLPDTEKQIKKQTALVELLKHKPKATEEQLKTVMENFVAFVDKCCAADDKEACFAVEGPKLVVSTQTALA
SWI/SNF-related matrix-associated actin-dependent regulator of chromatin subfamily A member 2, sequence (P51531 whole entry): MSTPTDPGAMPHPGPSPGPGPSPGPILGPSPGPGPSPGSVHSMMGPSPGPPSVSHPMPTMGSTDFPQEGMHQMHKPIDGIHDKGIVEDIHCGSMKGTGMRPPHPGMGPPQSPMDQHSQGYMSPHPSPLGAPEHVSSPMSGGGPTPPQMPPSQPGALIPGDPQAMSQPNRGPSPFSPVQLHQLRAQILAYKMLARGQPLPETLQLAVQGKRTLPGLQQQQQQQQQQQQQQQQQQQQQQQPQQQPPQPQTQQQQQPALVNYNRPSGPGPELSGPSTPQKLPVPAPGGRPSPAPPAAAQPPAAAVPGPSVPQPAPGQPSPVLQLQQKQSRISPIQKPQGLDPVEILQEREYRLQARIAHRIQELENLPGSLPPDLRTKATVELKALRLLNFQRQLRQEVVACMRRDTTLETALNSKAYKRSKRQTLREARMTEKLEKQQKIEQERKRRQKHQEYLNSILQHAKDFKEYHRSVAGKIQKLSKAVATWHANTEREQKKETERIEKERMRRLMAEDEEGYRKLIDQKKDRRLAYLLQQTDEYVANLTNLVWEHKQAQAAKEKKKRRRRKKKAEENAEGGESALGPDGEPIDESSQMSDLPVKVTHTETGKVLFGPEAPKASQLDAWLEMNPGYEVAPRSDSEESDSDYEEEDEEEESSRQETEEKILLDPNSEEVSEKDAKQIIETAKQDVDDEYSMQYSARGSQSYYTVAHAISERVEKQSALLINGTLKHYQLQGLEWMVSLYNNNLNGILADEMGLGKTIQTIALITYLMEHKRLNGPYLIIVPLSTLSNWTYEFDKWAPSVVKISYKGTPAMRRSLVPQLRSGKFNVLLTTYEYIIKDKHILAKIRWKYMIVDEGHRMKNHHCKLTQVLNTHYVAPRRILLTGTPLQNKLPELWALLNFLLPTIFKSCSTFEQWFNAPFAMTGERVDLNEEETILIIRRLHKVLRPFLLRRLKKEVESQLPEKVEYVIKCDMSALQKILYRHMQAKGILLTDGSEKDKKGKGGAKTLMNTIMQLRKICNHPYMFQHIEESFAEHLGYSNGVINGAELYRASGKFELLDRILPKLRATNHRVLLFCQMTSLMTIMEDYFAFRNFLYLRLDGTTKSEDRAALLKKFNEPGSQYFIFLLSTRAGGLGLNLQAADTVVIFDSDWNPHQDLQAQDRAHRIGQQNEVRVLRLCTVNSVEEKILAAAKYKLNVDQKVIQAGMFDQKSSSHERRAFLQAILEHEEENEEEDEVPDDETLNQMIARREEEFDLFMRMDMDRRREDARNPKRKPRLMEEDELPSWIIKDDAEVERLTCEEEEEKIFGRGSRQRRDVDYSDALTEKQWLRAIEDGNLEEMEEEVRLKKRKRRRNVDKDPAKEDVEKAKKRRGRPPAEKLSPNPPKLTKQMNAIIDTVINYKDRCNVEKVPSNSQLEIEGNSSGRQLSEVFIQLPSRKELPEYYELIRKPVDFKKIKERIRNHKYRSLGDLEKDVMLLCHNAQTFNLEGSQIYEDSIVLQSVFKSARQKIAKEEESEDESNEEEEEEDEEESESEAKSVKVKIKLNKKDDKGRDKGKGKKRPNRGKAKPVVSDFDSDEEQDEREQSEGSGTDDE
Disintegrin and metalloproteinase domain-containing protein 17, sequence (P78536 whole entry, the tested form may be a part): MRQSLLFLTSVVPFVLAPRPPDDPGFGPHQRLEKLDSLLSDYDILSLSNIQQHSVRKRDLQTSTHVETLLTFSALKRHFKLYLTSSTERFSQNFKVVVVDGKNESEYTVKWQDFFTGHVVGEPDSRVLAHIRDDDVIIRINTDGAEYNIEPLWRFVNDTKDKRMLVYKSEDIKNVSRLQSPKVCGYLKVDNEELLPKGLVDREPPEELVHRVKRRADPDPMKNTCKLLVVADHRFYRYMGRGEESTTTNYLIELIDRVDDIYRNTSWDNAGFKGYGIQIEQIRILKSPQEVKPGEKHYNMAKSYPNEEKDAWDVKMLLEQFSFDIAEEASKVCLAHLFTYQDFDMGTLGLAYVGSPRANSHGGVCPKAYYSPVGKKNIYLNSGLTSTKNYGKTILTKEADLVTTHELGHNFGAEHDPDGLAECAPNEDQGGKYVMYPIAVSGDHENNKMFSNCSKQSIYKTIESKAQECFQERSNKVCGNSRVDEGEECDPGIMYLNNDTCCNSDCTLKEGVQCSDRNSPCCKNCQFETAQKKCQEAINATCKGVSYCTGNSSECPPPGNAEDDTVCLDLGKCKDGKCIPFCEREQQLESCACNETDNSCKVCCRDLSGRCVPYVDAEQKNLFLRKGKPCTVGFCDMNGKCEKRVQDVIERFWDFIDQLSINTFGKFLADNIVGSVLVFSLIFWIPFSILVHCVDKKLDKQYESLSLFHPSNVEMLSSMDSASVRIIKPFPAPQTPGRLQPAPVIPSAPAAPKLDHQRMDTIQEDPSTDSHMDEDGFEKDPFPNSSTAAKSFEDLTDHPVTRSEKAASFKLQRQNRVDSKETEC

**Q.** Which AC50 [1] does the source give for `C[C@H]1CN([C@@H](C)CO)C(=O)c2cccc(NC(=O)c3ccncc3)c2O[C@@H]1CN(C)Cc1ccccc1C(F)(F)F` here?
**A.** 0.0342 µM (active)

**Q.** Which AC50 [2] does the source give for `S=C(NCCCN1CCOCC1)N1CCN(c2nc(-c3ccc(Cl)cc3)cs2)CC1` here?
**A.** 7.13 µM (active)

**Q.** And the AC50 (INS1)?
**A.** 11.2 µM (active)

**Q.** And the AC50 [3]?
**A.** 31 µM (active)

**Q.** What about the AC50 [4] of the same molecule?
**A.** 19.9 µM (active)

**Q.** What about the AC50 [5] of the same molecule?
**A.** 25.9 µM (active)

**Q.** What about the AC50 [6] of the same molecule?
**A.** 0.888 µM (active)

**Q.** Which results are given for `COc1ccc(COC(=O)C2=C(C)NC(=O)NC2c2ccc(OC)cc2)cc1` (stereo unspecified)?
**A.** AC50 [2]: 33.4 µM (active); AC50 [3]: 21.6 µM (active); AC50 [4]: 60.3 µM (active); AC50 [5]: 47.3 µM (active)

**Q.** Which IC50 [7] does the source give for `COc1ccccc1N(C)S(=O)(=O)c1ccc(C(=O)NNC(=O)c2ccccc2O)cc1` here?
**A.** > 69.5 µM (inactive)

**Q.** What about the IC50 (Albumin) of the same molecule?
**A.** > 94.1 µM (inactive)

**Q.** And the IC50 [8]?
**A.** > 69.5 µM (inactive)

**Q.** With `O=C(/C=C/c1ccc(O)cc1)c1ccc(O)cc1O` [ISOLIQUIRITIGENIN] as the molecule, how does the CC50 (Vero) read?
**A.** > 25 µM (active)

**Q.** And the EC50 [9]?
**A.** > 91.1 µM (inactive)

**Q.** And the EC50 [10]?
**A.** > 91.1 µM (inactive)

**Q.** Which results are given for `Cc1ccccc1-n1c(=O)cc(N2CCc3ccccc3C2)[nH]c1=O`?
**A.** EC50 (cells [11]): > 29.9 µM (inactive); EC50 [12]: 2.59 µM (active); IC50 [13]: 7.07 µM (active); IC50 (cells [14]): > 29.9 µM (inactive)
